Reference: US20140349970A1 (ABBVIE INC., priority 2009, published 2014)

Target: T1, Syk catalytic domain (aa 356-635 with a C-terminal His-tag) (Homo sapiens, UniProt P43405)
T1 construct: His-tag (C); made in house
Assay: In vitro Syk kinase activity measured by trFRET, Syk catalytic domain
Assay type: biochemical
Conditions: not given
Experimental: In Vitro Syk Kinase Activity Measured by Time-Resolved Fluorescence Resonance Energy Transfer (trFRET)
0.14 nM purified Syk catalytic domain (aa 356-635 with a C-terminal His-tag purified in-house by immobilized metal ion affinity chromatography) was mixed with 0.2 μM peptide substrate (biotin-TYR1, Sequence: Biotin-(Ahx)-GAEEEIYAAFFA-COOH) at varying inhibitor concentrations in reaction buffer: 50 mM MOPSO pH 6.5, 10 mM MgCl2, 2 mM MnCl2, 2.5 mM DTT, 0.01% BSA, 0.1 mM Na3VO4 and 0.001 mM ATP. After about 60 min incubation at rt, the reaction was quenched by addition of EDTA (final concentration: 100 mM) and developed by addition of revelation reagents (final approximate concentrations: 30 mM HEPES pH 7.0, 0.06% BSA, 0.006% Tween-20, 0.24 M KF, 80 ng/mL PT66K (europium labeled anti-phosphotyrosine antibody cat #61T66KLB Cisbio, Bedford, Mass.) and 0.6 μg/mL SAXL (Phycolink streptavidin-allophycocyanin acceptor, cat #PJ255, Prozyme, San Leandro, Calif.). The developed reaction was incubated in the dark either at about 4° C. for about 14 h or for about 60 min at rt, then read via a time-resolved fluorescence detector (Rubystar, BMG) using a 337 nm laser for excitation and monitoring emission wavelengths at 665 nm. Within the linear range of the assay, the observed signal at 665 nm was directly related to phosphorylated product and can be used to calculate the IC50 values.
MOPSO buffer contains: 50 mM MOPSO pH 6.5, 10 mM MgCl2, 2 mM MnCl2, 2.5 mM DTT, 0.01% BSA, and 0.1 mM Na3VO4 HEPES buffer contains: 50 mM HEPES pH 7.1, 2.5 mM DTT, 10 mM MgCl2, 2 mM MnCl2, 0.01% BSA, and 0.1 mM Na3VO4 MOPS buffer contains: 20 mM MOPS pH 7.2, 10 mM MgCl2, 5 mM EGTA, 5 mM Beta-phosphoglycerol, 1 mM Na3VO4, 0.01% Triton-X-100 and 1 mM DTT
Biotin-TYR1-peptide sequence: Biotin-(Ahx)-GAEEEIYAAFFA-COOH Biotin-TYR2-peptide sequence: Biotin-(Ahx)-AEEEYFFLFA-amide KinEASE 51 peptides were purchased from Cisbio (cat #62ST0PEB, Bedford, Mass.)
PT66K was purchased from Cisbio (cat #61T66KLB, Bedford, Mass.) EuSTK was purchased from Cisbio (cat #62ST0PEB, Bedford, Mass.) SAXL was purchased from Prozyme (cat #PJ25S, San Leandro, Calif.) Human T-Blasts IL-2 pSTAT5 Cellular Assay

Row | IC50 [µM] | SMILES
1 | < 0.1 | CC(C)(CO)c1ccc(-c2ncn3c2cnc2[nH]ccc23)cc1 [AC.4.1]
2 | < 0.1 | COc1ccc(-c2n[nH]c3c2cnc2[nH]ccc23)cc1 [AU.1.2]
3 | 0.1 to 1 | COc1ccc(-c2nc([C@H]3CCC[C@@H](N)C3)n3c2cnc2[nH]ccc23)cc1 [T.3.1.3]
4 | < 0.1 | Cc1nc(-c2ccc(C(C)(C)CO)cc2)c2cnc3[nH]ccc3n12 [AC.1.7]
5 | 0.1 to 1 | Cc1nc(-c2ccc(CNS(=O)(=O)C3CC3)cc2)c2cnc3[nH]ccc3n12 [AC.1.38]
6 | 0.1 to 1 | c1cc2c(ncc3c(-c4ccc(OC5CCNC5)cc4)ncn32)[nH]1 (stereo not shown) [T.3.1.5]
7 | 0.1 to 1 | CC(C)(O)c1ccc(-c2nc(CN3CCNCC3)n3c2cnc2[nH]ccc23)cc1 [P.3.1.7]
8 | 0.1 to 1 | CCCNC(=O)c1ccc(-c2ncn3c2cnc2[nH]ccc23)cc1 [AC.4.7]
9 | 0.1 to 1 | CC(=O)c1cc(-c2ncn3c2cnc2[nH]ccc23)ccn1 [AC.4.4]
10 | 0.1 to 1 | CC(=O)N1CCC[C@@H]1c1nc(-c2ccc(C(C)(C)O)cc2)c2cnc3[nH]ccc3n12 [AC.5.1]
11 | 0.1 to 1 | CS(=O)(=O)c1ccc(-c2nc([C@H]3CC[C@H](N)CC3)n3c2cnc2[nH]ccc23)cc1 [P.3.1.11]
12 | 0.1 to 1 | c1cc(-c2nc(C3CCCCC3)n3c2cnc2[nH]ccc23)ccn1 [AC.3.23]
13 | 0.1 to 1 | CC(C)(N)c1ccc(-c2nc(C3CCCCC3)n3c2cnc2[nH]ccc23)cc1 [P.3.1.1, 2-(4-(1-Cyclohexyl-6H-imidazo[1,5-a]pyrrolo[2,3-e]pyrazin-3-yl)phenyl)propan-2-amine]
14 | 0.1 to 1 | CC(C)S(=O)(=O)c1ccc(-c2nc(C3CCCCC3)n3c2cnc2[nH]ccc23)cc1 [AC.3.30]
15 | 0.1 to 1 | CN(C)S(=O)(=O)c1ccc(-c2nc(C3CCCCC3)n3c2cnc2[nH]ccc23)cc1 [AC.3.29]
16 | < 0.1 | CNS(=O)(=O)c1ccc(-c2nc(C)n3c2cnc2[nH]ccc23)cc1 [AC.1.9]

Continued, compound first:

Row | SMILES | IC50 [µM]
17 | CC(C)(O)c1ccc(-c2nc(CCCN)n3c2cnc2[nH]ccc23)cc1 [AC.5.5] | 0.1 to 1
18 | CC(=O)c1ccc(-c2nc(C)n3c2cnc2[nH]ccc23)s1 [AC.1.32] | 0.1 to 1
19 | COc1ccc(-c2nc(C)n3c2cnc2[nH]ccc23)s1 [AC.1.31] | < 0.1
20 | Cn1cc(-c2cc3c(ncc4cnn(C)c43)[nH]2)c2ccc(C(=O)O)cc21 [AN.1.3] | < 0.1
21 | COc1c(C)cc(-c2nc(C)n3c2cnc2[nH]ccc23)cc1C [AC.1.25] | < 0.1
22 | Cc1c(-c2ccc(C(C)(C)O)cc2)[nH]c2ncc3nnc(C)n3c12 [S.1.5] | 1 to 10
23 | CN1CCN(Cc2ccc(-c3nc(C4CCCCC4)n4c3cnc3[nH]ccc34)cc2)CC1 [AC.3.14] | 0.1 to 1
24 | Cc1nc(-c2ccc(CO)nc2)c2cnc3[nH]ccc3n12 [AC.1.3] | 0.1 to 1
25 | CCc1c(-c2ccc(C(C)(C)O)cc2)[nH]c2ncc3nncn3c12 [S.1.9] | 0.1 to 1

Same assay, conditions: Syk catalytic domain (aa 356-635), trFRET, 0.001 mM ATP

Row | IC50 [µM] | SMILES
26 | < 0.1 | CN(C)c1nc(-c2ccc(C(C)(C)O)cc2)c2cnc3[nH]ccc3n12 [N.1.59]
27 | < 0.1 | CC(C)(O)c1ccc(-c2nc(C3CC[C@H](NS(=O)(=O)C4CC4)C3)n3c2cnc2[nH]ccc23)cc1 (stereo partly shown) [N.1.51]
28 | 1 to 10 | COc1ccc(-c2nc(N3CCN(C)CC3)n3c2cnc2[nH]ccc23)cc1 [N.1.85]
29 | 0.1 to 1 | CS(=O)(=O)c1ccc(-c2nc([C@H]3CCCNC3)n3c2cnc2[nH]ccc23)cc1 [N.1.61]
30 | 1 to 10 | COc1ccc(-c2nc(CN(C)C)n3c2cnc2[nH]ccc23)cc1 [N.1.89]
31 | 0.1 to 1 | C=C(C)c1ccc(-c2nc(C3CC[C@H](NS(=O)(=O)C4CC4)C3)n3c2cnc2[nH]ccc23)cc1 (stereo partly shown) [N.1.52]
32 | 0.1 to 1 | CC(C)(O)c1ccc(-c2nc(C3CCOCC3)n3c2cnc2[nH]ccc23)cc1 [N.1.84]
33 | 0.1 to 1 | COc1ccc(-c2nnn3c2cnc2[nH]ccc23)cc1 [N.1.107]
34 | 0.1 to 1 | COc1ccc(-c2nc(CO)n3c2cnc2[nH]ccc23)cc1 [N.1.113]

The remaining lines, values behind:

Row | SMILES | IC50 [µM]
35 | COc1ccc2c(c1)c(-c1cc3c(ncc4cnn(C)c43)[nH]1)cn2CC(O)CO (stereo not shown) [N.1.26] | < 0.1
36 | COc1ccc2c(c1)c(-c1cc3c(ncc4cnc(N5CCCC5)n43)[nH]1)cn2C [M.1.17] | < 0.1
37 | CN1CCN(C(=O)Cn2cccc2-c2cc3c(ncc4cnn(C)c43)[nH]2)CC1 [J.2.3.3] | > 10
38 | Cn1ncc2cnc3[nH]c(-c4ccc(C(C)(C)O)cc4)cc3c21 [N.1.1] | < 0.1
39 | CCc1c(-c2cnn(C)c2C)[nH]c2ncc3cnn(C)c3c12 [N.1.38] | 1 to 10
40 | CN1CCN(C(=O)CNC(=O)c2ccc3c(c2)c(-c2cc4c(ncc5cnn(C)c54)[nH]2)cn3C)CC1 [J.1.8.6] | < 0.1
41 | COc1ccc2c(c1)c(-c1cc3c(ncc4cnn(C)c43)[nH]1)cn2CC(=O)N(C)C [N.1.25] | < 0.1
42 | CCc1c(-c2cccc(S(=O)(=O)N(CC)CC)c2)[nH]c2ncc3cnn(C)c3c12 [N.1.40] | 1 to 10
43 | COc1ccc2c(c1)c(-c1cc3c4c(cnc3n1COP(=O)(O)O)cnn4C)cn2C [Example 9, (7-(5-Methoxy-1-methyl-1H-indol-3-yl)-1-methylpyrazolo[3,4-d]pyrrolo[2,3-b]pyridin-6(1H)-yl)methyl dihydrogen phosphate] | 1 to 10
44 | CC(=O)N[C@H]1CC[C@@H](c2ncc3cnc4[nH]c(-c5cccc(S(C)(=O)=O)c5)cc4n23)C1 [J.2.1.2] | 0.1 to 1
45 | COc1ccc2c(c1)c(-c1cc3c(ncc4cnn(C)c43)[nH]1)cn2CC(=O)N1CCN(C)CC1 [N.2.14] | < 0.1
46 | Cn1ncc2cnc3[nH]c(-c4cccc(CNC(=O)CCN5CCOCC5)c4)cc3c21 [J.1.1.3] | 0.1 to 1
47 | CCCNC(=O)c1cc(-c2nc(C)n3c2cnc2[nH]ccc23)ccc1OC [J.1.7.1] | 0.1 to 1
48 | CCc1c(-c2ccc(OCCOC)cc2)[nH]c2ncc3cnn(C)c3c12 [N.1.79] | 0.1 to 1
49 | Cn1ncc2cnc3[nH]c(-c4ccncc4)cc3c21 [N.2.1] | 0.1 to 1
50 | COc1ccc2c(c1)c(-c1cc3c(ncc4cnc(CCCNC(C)=O)n43)[nH]1)cn2C [Example 5, N-(3-(7-(5-Methoxy-1-methyl-1H-indol-3-yl)-6H-imidazo[1,5-a]pyrrolo[2,3-e]pyrazin-1-yl)propyl)acetamide] | < 0.1
51 | CC(C)(O)c1ccc(-c2nc([C@@H]3CCCN(C(=O)C4(C#N)CC4)C3)n3c2cnc2[nH]ccc23)cc1 [D.2.2] | 0.1 to 1

Row | SMILES | IC50 [µM]
52 | Cn1ncc2cnc3[nH]c(-c4ccc5ncccc5c4)cc3c21 [N.2.7] | 0.1 to 1
53 | Cc1nc(-c2ccc(C(C)(C)O)cc2F)c2cnc3[nH]ccc3n12 [N.1.102] | 0.1 to 1
54 | CCc1c(-c2ccc(OCCN3CCOCC3)cc2)[nH]c2ncc3cnn(C)c3c12 [N.1.45] | 0.1 to 1
55 | Cn1ncc2cnc3[nH]c(-c4ccc(C(C)(C)O)cc4)c(C#N)c3c21 [D.2.3] | < 0.1
56 | Cc1nc(-c2ccc(C(C)(C)O)cc2)c2cnc3[nH]cc(C#N)c3n12 [M.2.4] | < 0.1
57 | CCc1c[nH]c2ncc3c(-c4ccsc4)nn(C)c3c12 [N.1.73] | 0.1 to 1
58 | Cn1ncc2cnc3[nH]c(-c4cccnc4)cc3c21 [N.2.2] | 0.1 to 1
59 | COc1ccc(-c2nn(C)c3c2cnc2[nH]cc(C#N)c23)cc1 [M.2.3] | < 0.1
60 | CCc1c(-c2ccc(N3CCOCC3)cc2)[nH]c2ncc3cnn(C)c3c12 [N.1.31] | 0.1 to 1
61 | CCc1c(-c2cnn(C)c2)[nH]c2ncc3cnn(C)c3c12 [N.1.44] | 0.1 to 1
62 | COc1ccc2c(c1)c(-c1cc3c(ncc4cnc(CCCN)n43)[nH]1)cn2C [T.1.1.3] | < 0.1
63 | CCc1c[nH]c2ncc3c(-c4ccc(OC)c(F)c4)nn(C)c3c12 [N.1.67] | 0.1 to 1
64 | O=C(O)/C=C/c1nc(C2CCCCC2)n2c1cnc1[nH]ccc12 [Example 3, (E)-3-(1-Cyclohexyl-6H-imidazo[1,5-a]pyrrolo[2,3-e]pyrazin-3-yl)acrylic acid] | 0.1 to 1
65 | CCc1c(-c2ccc(C(C)(C)O)cc2)[nH]c2ncc3cnn(C)c3c12 [N.1.20] | < 0.1
66 | Cn1cc(-c2cc3c(ncc4cnn(C)c43)[nH]2)c2cc(C(C)(C)O)ccc21 [N.1.101] | < 0.1
67 | CSc1ccc(-c2nn(C)c3c2cnc2[nH]ccc23)cc1 [AU.1, 1-Methyl-3-(4-(methylthio)phenyl)-1,6-dihydropyrazolo[3,4-d]pyrrolo[2,3-b]pyridine] | < 0.1
